Reference: the supplement of paper PMC10307832

What was measured:
Experiment in all cases: relative viability (nuclei count vs DMSO), 5 days (fraction); higher = more cells survive
Motesanib + Dasatinib = compound: CC1(C)CNc2cc(NC(=O)c3cccnc3NCc3ccncc3)ccc21 [Motesanib] + Cc1nc(Nc2ncc(C(=O)Nc3c(C)cccc3Cl)s2)cc(N2CCN(CCO)CC2)n1 [Dasatinib] (partner 0.075 µM)
Summary of the method: (§1)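 The day after seeding in 1536-well plates, lung cancer cell lines were treated by pin tool with a single drug, or with a fixed anchor-drug dose together with five library-drug doses (not always all listed) in √10 steps. After 5 days, a combined fix-and-stain solution (final 0.05% Triton X-100, 1% formaldehyde, 1 ug/ml Hoechst) was added. Nuclei counted on 4× images gave relative viability as treated counts over vehicle counts, reported as the median of duplicate plates.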

[1] = compound: C[C@@]1(C(=O)Nc2ccc(F)nc2)CCCN1c1nc(Nc2cc(C3CC3)n[nH]2)c2cccn2n1 + CC(C)C[C@H](NC(=O)[C@H](Cc1ccccc1)NC(=O)c1cnccn1)B(O)O [Bortezomib] (partner 0.002 µM)
Summary of the method: as §1

[2] = compound: C[C@@]1(C(=O)Nc2ccc(F)nc2)CCCN1c1nc(Nc2cc(C3CC3)n[nH]2)c2cccn2n1 + Cc1cc(Nc2cc(N3CCN(C)CC3)nc(Sc3ccc(NC(=O)C4CC4)cc3)n2)n[nH]1 [Tozasertib] (partner 0.1 µM)
Summary of the method: as §1

[3] = compound: C[C@@]1(C(=O)Nc2ccc(F)nc2)CCCN1c1nc(Nc2cc(C3CC3)n[nH]2)c2cccn2n1 + Nc1nc2[nH]cc(CCc3ccc(C(=O)N[C@@H](CCC(=O)O)C(=O)O)cc3)c2c(=O)[nH]1 [Pemetrexed] (partner 0.2 µM)
Summary of the method: as §1

| Cell Line | relative viability (Motesanib + Dasatinib; first compound 0.01 µM) | relative viability (Motesanib + Dasatinib; first compound 0.03162 µM) | relative viability (Motesanib + Dasatinib; first compound 0.1 µM) | relative viability (Motesanib + Dasatinib; first compound 0.3162 µM) | relative viability (Motesanib + Dasatinib; first compound 1 µM) | relative viability ([1]; first compound 0.04 µM) | relative viability ([1]; first compound 0.1265 µM) | relative viability ([1]; first compound 0.4 µM) | relative viability ([1]; first compound 1.265 µM) | relative viability ([2]; first compound 0.04 µM) | relative viability ([2]; first compound 0.1265 µM) | relative viability ([2]; first compound 0.4 µM) | relative viability ([2]; first compound 1.265 µM) | relative viability ([3]; first compound 0.04 µM) | relative viability ([3]; first compound 0.1265 µM) | relative viability ([3]; first compound 0.4 µM) | relative viability ([3]; first compound 1.265 µM) |
| --- | --- | --- | --- | --- | --- | --- | --- | --- | --- | --- | --- | --- | --- | --- | --- | --- | --- |
| NCI-H1975 | 0.363 | 0.328 | 0.397 | 0.324 | 0.312 | 0.344 | 0.34 | 0.299 | 0.308 | 0.682 | 0.646 | 0.513 | 0.316 | 0.302 | 0.298 | 0.274 | 0.268 |
| NCI-H1993 | 0.629 | 0.509 | 0.639 | 0.63 | 0.588 | 0.797 |  | 0.615 | 0.674 | 0.556 | 0.502 | 0.55 | 0.549 | 0.496 | 0.488 | 0.462 | 0.474 |
| NCI-H2009 | 0.286 | 0.245 | 0.304 | 0.314 | 0.346 | 1.13 | 1.17 | 0.931 | 0.875 | 0.779 | 0.693 | 0.598 | 0.519 | 1.07 | 1.01 | 1.01 | 1.03 |
| NCI-H2023 | 0.576 | 0.476 | 0.575 | 0.59 | 0.662 | 0.912 | 0.821 | 0.62 | 0.244 | 0.337 | 0.31 | 0.174 | 0.118 | 0.252 | 0.137 | 0.152 | 0.0911 |
| NCI-H2085 | 0.286 | 0.204 | 0.225 | 0.252 | 0.23 | 1.04 | 0.927 | 0.834 | 0.945 | 0.892 | 0.795 | 0.664 | 0.92 | 0.959 | 0.844 | 0.887 | 0.877 |
| NCI-H2087 | 0.838 | 0.841 | 0.774 | 0.91 | 0.895 | 0.778 | 0.825 | 0.624 | 0.631 | 0.231 | 0.28 | 0.159 | 0.209 | 0.669 | 0.696 | 0.639 | 0.668 |
| NCI-H2126 | 0.598 | 0.541 | 0.597 | 0.545 | 0.635 | 1.08 | 0.861 | 0.769 | 0.746 | 0.677 | 0.366 | 0.441 | 0.337 | 0.622 | 0.463 | 0.379 | 0.465 |
| NCI-H2228 | 0.497 | 0.49 | 0.549 | 0.495 | 0.502 | 1.25 | 0.731 | 0.835 | 0.751 | 0.258 | 0.248 | 0.235 | 0.178 | 0.388 | 0.355 | 0.317 | 0.286 |
| NCI-H2347 | 0.299 | 0.302 | 0.344 | 0.3 | 0.305 | 1.05 | 0.654 | 0.916 | 0.765 | 0.606 | 0.581 | 0.512 | 0.502 | 0.437 | 0.415 | 0.436 | 0.416 |
| NCI-H2405 |  | 0.196 | 0.232 | 0.283 | 0.208 | 1 | 0.682 | 0.835 | 0.896 | 0.659 | 0.65 | 0.5 | 0.409 | 0.8 | 0.905 | 0.819 | 0.614 |
| NCI-H3122 | 0.705 | 0.825 | 0.677 | 0.893 | 0.916 | 0.993 | 1.03 | 1.04 | 0.944 | 0.373 | 0.541 | 0.219 | 0.306 | 0.202 | 0.175 | 0.178 | 0.18 |
| PC-3 [JPC-3] | 0.845 | 0.989 | 0.974 | 1.04 | 0.974 | 0.831 | 0.819 | 0.788 | 0.874 | 0.915 | 0.882 | 0.843 | 0.887 | 1.19 | 1.03 | 1.04 | 0.839 |
| PC-14 | 0.288 | 0.286 | 0.256 | 0.298 | 0.319 | 0.846 | 0.715 | 0.674 | 0.799 | 0.572 | 0.587 | 0.515 | 0.464 | 0.154 | 0.155 | 0.134 | 0.121 |
| RERF-LC-KJ | 0.92 | 0.803 | 0.806 | 0.811 | 0.839 | 0.919 | 0.872 | 0.907 | 0.878 | 0.544 | 0.506 | 0.33 | 0.236 | 0.467 | 0.421 | 0.438 | 0.436 |
| SK-LU-1 | 0.189 | 0.189 | 0.183 | 0.198 | 0.209 | 1.06 | 1.03 | 0.93 | 0.884 | 0.282 | 0.318 | 0.233 | 0.259 | 1.07 | 0.833 | 0.778 | 0.85 |
| SW 1573 | 0.53 | 0.447 | 0.593 | 0.552 | 0.673 | 0.894 | 0.611 | 0.7 | 0.716 | 0.15 | 0.16 | 0.172 | 0.182 | 0.847 | 0.749 | 0.803 | 0.244 |
